# Measurements reported in ChEMBL document CHEMBL1153816, “Novel N-substituted 4-hydrazino piperidine derivative as a dipeptidyl peptidase IV inhibitor” (Bioorg Med Chem Lett, 2009).
# Activity calls are given as the source filed them. The rule behind the calls is not given here.
# System: Rattus norvegicus
# Assay: Antidiabetic activity in ZDF rat diabetic model assessed as decrease in glucose excursion at 44 mg/kg, po administered BID for 6 weeks by OGTT
# Format: functional, organism-based
# Set-up: dose 44 mg/kg
row,Structure (SMILES),Activity
1,N#C[C@@H]1CSCN1C(=O)CN(N)C1CCN(CC(=O)Nc2ccc(Cl)cn2)CC1,Active

# System: Rattus norvegicus
# Assay: Antidiabetic activity in n5-STZ rat diabetic model assessed as decrease in glucose excursion at 44 mg/kg, po administered as single dose by OGTT
row,Structure (SMILES),Activity
1,N#C[C@@H]1CSCN1C(=O)CN(N)C1CCN(CC(=O)Nc2ccc(Cl)cn2)CC1,Active

# Target: Dipeptidyl peptidase 4 (Sus scrofa, UniProt P22411)
# Sequence (P22411 whole entry): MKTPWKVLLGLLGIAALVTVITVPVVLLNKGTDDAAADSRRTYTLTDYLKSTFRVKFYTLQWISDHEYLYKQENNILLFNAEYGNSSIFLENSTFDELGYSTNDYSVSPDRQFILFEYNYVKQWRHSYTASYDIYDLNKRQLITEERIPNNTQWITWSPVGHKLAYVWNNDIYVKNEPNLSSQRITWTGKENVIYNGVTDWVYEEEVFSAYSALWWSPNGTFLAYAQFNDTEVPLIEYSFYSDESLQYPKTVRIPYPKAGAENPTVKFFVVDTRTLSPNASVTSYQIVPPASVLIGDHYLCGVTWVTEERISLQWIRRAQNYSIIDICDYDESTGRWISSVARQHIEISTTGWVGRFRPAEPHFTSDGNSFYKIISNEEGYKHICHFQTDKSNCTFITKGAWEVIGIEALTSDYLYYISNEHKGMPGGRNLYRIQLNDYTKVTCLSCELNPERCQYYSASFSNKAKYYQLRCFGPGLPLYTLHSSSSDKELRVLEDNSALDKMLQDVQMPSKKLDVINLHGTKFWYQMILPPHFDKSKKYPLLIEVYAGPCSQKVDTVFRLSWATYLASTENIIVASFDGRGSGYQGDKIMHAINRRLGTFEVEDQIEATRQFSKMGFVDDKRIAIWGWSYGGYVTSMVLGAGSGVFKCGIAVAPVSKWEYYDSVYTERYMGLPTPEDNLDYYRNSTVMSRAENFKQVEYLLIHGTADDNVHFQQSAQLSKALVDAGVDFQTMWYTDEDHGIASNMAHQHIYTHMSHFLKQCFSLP
# Assay: Inhibition of pig kidney DPP4 by spectrophotometric method
row,Structure (SMILES),IC50
1,Cc1ccc(S(=O)(=O)N2CCC(N(N)CC(=O)N3CSC[C@H]3C#N)CC2)cc1,2700 nM
2,N#C[C@@H]1CSCN1C(=O)CN(N)C1CCN(CC(=O)Nc2nc3ccccc3s2)CC1,134 nM
3,N#C[C@@H]1CSCN1C(=O)CN(N)C1CCN(Cc2cccnc2)CC1,4770 nM
4,COC(=O)NN(CC(=O)N1CSC[C@H]1C#N)C1CCN(CC(=O)Nc2ccc(Cl)cn2)CC1,38400 nM
5,N#C[C@@H]1CSCN1C(=O)CN(N)C1CCN(CC(=O)Nc2ccc3c(c2)OCO3)CC1,240 nM
6,N#C[C@@H]1CSCN1C(=O)CN(N)C1CCN(CC(=O)Nc2ccc(S(N)(=O)=O)cc2)CC1 [listing 1 of 2 here],98 nM
7,COc1ccc(S(=O)(=O)N2CCC(N(N)CC(=O)N3CSC[C@H]3C#N)CC2)cc1,6680 nM
8,Cc1nc(NC(=O)CN2CCC(N(N)CC(=O)N3CSC[C@H]3C#N)CC2)sc1C,185 nM
9,N#C[C@@H]1CSCN1C(=O)CN(N)C1CCN(COc2ccccc2)CC1,638 nM
10,CS(=O)(=O)N1CCC(N(N)CC(=O)N2CSC[C@H]2C#N)CC1,1460 nM
11,N#C[C@@H]1CSCN1C(=O)CN(N)C1CCN(CC(=O)NC2CC2)CC1 [listing 2 of 2 here],236 nM
12,CC1CCC(C(=O)N2CCC(N(N)CC(=O)N3CSC[C@H]3C#N)CC2)CC1 (some centres not stated),866 nM
13,N#Cc1ccc(NC(=O)CN2CCC(N(N)CC(=O)N3CSC[C@H]3C#N)CC2)nc1 [listing 1 of 2 here],130 nM
14,N#Cc1cc(CN2CCC(N(N)CC(=O)N3CSC[C@H]3C#N)CC2)ccc1-c1ccccc1,1020 nM
15,N#C[C@@H]1CCCN1C(=O)CN(N)C1CCN(CC(=O)Nc2ccc(Cl)cn2)CC1,3700 nM
16,N#Cc1ccc(NC(=O)CN2CCC(N(N)CC(=O)N3CSC[C@H]3C#N)CC2)cc1,200 nM
17,CC(C)(C)C(=O)N1CCC(N(N)CC(=O)N2CSC[C@H]2C#N)CC1,4150 nM
18,CCNN(CC(=O)N1CSC[C@H]1C#N)C1CCN(S(C)(=O)=O)CC1,3760 nM
19,COCCNC(=O)CN1CCC(N(N)CC(=O)N2CSC[C@H]2C#N)CC1,1030 nM
20,N#C[C@@H]1CSCN1C(=O)CN(N)C1CCN(CC(=O)Nc2ncc(Br)s2)CC1,226 nM
21,N#C[C@@H]1CSCN1C(=O)CN(N)C1CCNCC1,12100 nM
22,N#C[C@@H]1CSCN1C(=O)CN(N)C1CCN(Cc2ccc(F)cc2)CC1,2230 nM
23,N#C[C@@H]1CSCN1C(=O)CN(N)C1CCN(CC(=O)Nc2ccc(S(N)(=O)=O)cc2)CC1 [listing 2 of 2 here],90 nM
24,N#C[C@@H]1CSCN1C(=O)CN(N)C1CCN(C(=O)c2cccc(Cl)c2Cl)CC1,1790 nM

# Other lines, results leading:
row,IC50,Structure (SMILES)
1,1630 nM,N#C[C@@H]1CSCN1C(=O)CN(N)C1CCN(Cc2ccccc2)CC1
2,1530 nM,CC(=O)N1CCC(N(N)CC(=O)N2CSC[C@H]2C#N)CC1
3,1450 nM,N#C[C@@H]1CSCN1C(=O)CN(N)C1CCN(S(=O)(=O)c2ccc(Cl)cc2)CC1
4,1230 nM,CN(CCN)C(=O)N1CCC(N(N)CC(=O)N2CSC[C@H]2C#N)CC1
5,830 nM,N#C[C@@H]1CSCN1C(=O)CN(N)C1CCN(C(=O)CN2CCOCC2)CC1
6,790 nM,N#C[C@@H]1CSCN1C(=O)CN(N)C1CCN(C(=O)N2CCOCC2)CC1
7,698 nM,N#C[C@@H]1CSCN1C(=O)CN(N)C1CCN(Cc2ccc([N+](=O)[O-])cc2)CC1
8,523 nM,N#C[C@@H]1CSCN1C(=O)CN(N)C1CCN(CC(=O)NC23CC4CC(CC(C4)C2)C3)CC1
9,510 nM,N#C[C@@H]1CSCN1C(=O)CN(N)C1CCN(CC(=O)NCc2ccccc2F)CC1
10,506 nM,N#C[C@@H]1CSCN1C(=O)CN(N)C1CCN(CC(=O)NC2CCCCC2)CC1
11,490 nM,CCNN(CC(=O)N1CSC[C@H]1C#N)C1CCN(CC(=O)Nc2ccc(Cl)cn2)CC1
12,468 nM,CC(C)OCCCNC(=O)CN1CCC(N(N)CC(=O)N2CSC[C@H]2C#N)CC1
13,359 nM,N#C[C@@H]1CSCN1C(=O)CN(N)C1CCN(CC(=O)Nc2ccc(F)c(Cl)c2)CC1
14,308 nM,N#C[C@@H]1CSCN1C(=O)CN(N)C1CCN(CC(=O)Nc2ccc(C(F)(F)F)cc2)CC1
15,217 nM,N#C[C@@H]1CSCN1C(=O)CN(N)C1CCN(CC(=O)NC2CC2)CC1 [listing 1 of 2 here]
16,143 nM,N#C[C@@H]1CSCN1C(=O)CN(N)C1CCN(CC(=O)Nc2ncccn2)CC1
17,110 nM,N#Cc1ccc(NC(=O)CN2CCC(N(N)CC(=O)N3CSC[C@H]3C#N)CC2)nc1 [listing 2 of 2 here]

# System: Rattus norvegicus
# Assay: Antidiabetic activity in ZDF rat diabetic model assessed as increase in insulin release at 44 mg/kg, po administered BID for 6 weeks by sandwich ELISA
# Format: functional, organism-based
# Set-up: dose 44 mg/kg
row,Structure (SMILES),Activity
1,N#C[C@@H]1CSCN1C(=O)CN(N)C1CCN(CC(=O)Nc2ccc(Cl)cn2)CC1,Active

# System: Rattus norvegicus
# Assay: Antidiabetic activity in n5-STZ rat diabetic model assessed as stimulation of insulin response at 44 mg/kg, po administered as single dose by sandwich ELISA
row,Structure (SMILES),Activity
1,N#C[C@@H]1CSCN1C(=O)CN(N)C1CCN(CC(=O)Nc2ccc(Cl)cn2)CC1,Active

# System: Rattus norvegicus
# Assay: Antidiabetic activity in n5-STZ rat diabetic model assessed as decrease in glucose AUC at 44 mg/kg, po administered as single dose by OGTT
row,Structure (SMILES),Activity
1,N#C[C@@H]1CSCN1C(=O)CN(N)C1CCN(CC(=O)Nc2ccc(Cl)cn2)CC1,Active

# System: Rattus norvegicus
# Assay: Inhibition of DPP4 in n5-STZ rat at 22 mg/kg, po administered as single dose after 4 hrs relative to vehicle treated control
row,Structure (SMILES),inhibition in vivo at 22 mg/kg
1,N#C[C@@H]1CSCN1C(=O)CN(N)C1CCN(CC(=O)Nc2ccc(Cl)cn2)CC1,39.8%
